Results: patent publication US20250215371A1, “MOTOR UNIT CHIP, MANUFACTURING METHOD THEREOF AND METHOD OF DETECTING PATHOLOGICAL EVENT USING THE SAME” (Taipei Medical University, priority 2023, published 2025)

Legend:
Type in all cases: cell-based, mouse
myotubes = assay: Calcium imaging (fura-2) of myotubes in the motor unit chip; details: n=8 fields
Procedure: (§1) Tri-cultures on 12.5 mm glass coverslips were briefly washed in HEPES Hanks' Buffer Solution (HHBS) (5.6 mM glucose, 20 mM Hepes, 3 mM NaHCO3, 0.3 mM Na2HPO4, 0.4 mM KH2PO4, 137 mM NaCl, 5.0 mM KCl, […], 4.1 mM MgSO4, 1.26 mM CaCl2, pH=7.4) and then the coverslip was incubated with fura-2 AM in 0.04% pluronic acid dissolved in HHBS to a final concentration of 20 μM for 30 mins at 37° C. After loading indicator, coverslips were washed in fresh HBSS for 10 mins at 37° C. and then transferred to an imaging chamber for microscopy experiments. Fura-2 imaging was performed on an Olympus IX71 microscope using a 20× objective lens. […] Intracellular Ca^2+ concentration ([Ca^2+]i) was monitored by sequential excitation (1 Hz) of fura-2 at 340 and 380 nm. […]
(§2) Images were processed using MetaFluor Analyst to draw regions of interest (ROIs), subtract background, and generate 340/380 ratios. […] Criterion “1” was empirically determined to exclude cells with poor signal to noise ratio. […]
(§3) Data were analyzed using the Student's t test. […] For statistical analyses of calcium image, MN and myotube data were assessed for normality using the D′Agostino-Pearson normality test. […] Percent responders was calculated using number of responders/total MNs or myotubes in the field.

MNs = assay: Calcium imaging (fura-2) of motor neurons in the motor unit chip; details: n=8 fields
Procedure: as §1, §2, §3

Schwann cells = assay: Calcium imaging (fura-2) of Schwann cells in the tri-culture; details: 50 mM extracellular K^+ or 10 μM ACh
Procedure: After loading indicator, coverslips were washed in fresh HBSS for 10 mins at 37° C. and then transferred to an imaging chamber for microscopy experiments. Fura-2 imaging was performed on an Olympus IX71 microscope using a 20× objective lens. Excitation wavelength was selected with a galvanometer-driven monochromator (8 nm slit width) coupled to a 75 W xenon arc lamp (Optoscan; Cairn Research). […] A single image was acquired at 610 nm to identify mApple expressing MNs in the field. Fluorescent images were captured using a cooled charge-coupled device camera (Cascade 512B; Roper Scientific) and Metafluor acquisition software (Molecular Devices). All fura-2 experiments were performed in HBSS buffer at room temperature. To depolarize MNs the extracellular K^+ concentration was increased to 50 mM with K^+ exchanged reciprocally for Na+in HHBS. For myotube stimulation 10 μM ACh was applied by bath perfusion. A 60 s baseline in HHBS was acquired before stimulation of each coverslip. High K^+ was applied for 30 s and ACh for 1 min. After stimulus application, a washout of 60 s was performed. Background images were acquired after each experiment; the coverslip was wiped clean, then 20 frames were acquired using the same parameters as above. Images were processed using MetaFluor Analyst to draw regions of interest (ROIs), subtract background, and generate 340/380 ratios. […]

SMILES	myotubes responded to ACh stimulation (percent responders) (myotubes; 10 μM ACh for 60 s, 24/27 cells)	ACh-evoked peak 340/380 ratio ([Ca^2+]i) (myotubes; 10 μM ACh, basal 340/380 ratio 0.68±0.12, mean ±SD)	MNs responded to 50 mM K^+ stimulation (percent responders) (MNs; 50 mM K^+ for 30 s, 43/62 cells)	depolarization-evoked peak 340/380 ratio ([Ca^2+]i) (MNs; 50 mM K^+, basal 340/380 ratio 0.62±0.06, mean ±SD)	changes in [Ca^2+]i in Schwann cells (Schwann cells)
CC(=O)OCC[N+](C)(C)C [ACh, acetylcholine]	89%	3.62±2.73			
[Cl-].[K+] [K^+]			70%	1.83±1.41	did not show any changes in [Ca^2+]i
